How the values were obtained:
Type in all cases: functional, Artery
Rattus norvegicus [1] = assay: Anticongestive heart failure activity in Rattus norvegicus (rat) assessed as blood pressure at 50 mg/kg, intraduodenal measured at 25 min by tracheal intubation method (reference value: 79 +/- 4 mmHg)
Rattus norvegicus [2] = assay: Anticongestive heart failure activity in Rattus norvegicus (rat) assessed as blood pressure at 50 mg/kg, intraduodenal measured at 30 min by tracheal intubation method (reference value: 88 +/- 3 mmHg)
Rattus norvegicus [3] = assay: Anticongestive heart failure activity in Rattus norvegicus (rat) assessed as blood pressure at 50 mg/kg, intraduodenal measured at 20 min by tracheal intubation method (reference value: 81 +/- 4 mmHg)
Rattus norvegicus [4] = assay: Anticongestive heart failure activity in Rattus norvegicus (rat) assessed as blood pressure at 50 mg/kg, intraduodenal measured at 5 min by tracheal intubation method (reference value: 97 +/- 3 mmHg)
Rattus norvegicus [5] = assay: Anticongestive heart failure activity in Rattus norvegicus (rat) assessed as blood pressure at 50 mg/kg, intraduodenal measured at 15 min by tracheal intubation method (reference value: 86 +/- 3 mmHg)
Rattus norvegicus [6] = assay: Anticongestive heart failure activity in Rattus norvegicus (rat) assessed as blood pressure at 50 mg/kg, intraduodenal measured at 10 min by tracheal intubation method (reference value: 95 +/- 3 mmHg)

Row | Compound | Activity (Rattus norvegicus [1]) | Activity (Rattus norvegicus [2]) | Activity (Rattus norvegicus [3]) | Activity (Rattus norvegicus [4]) | Activity (Rattus norvegicus [5]) | Activity (Rattus norvegicus [6])
1 | C[C@@H]1CC(=O)NN=C1c1ccc(/N=C/c2ccc(O)cc2)cc1 | 29 mmHg | 30 mmHg | 30 mmHg | 80 mmHg | 32 mmHg | 44 mmHg
2 | C[C@@H]1CC(=O)NN=C1c1ccc(/N=C/c2ccc(O)c(O)c2)cc1 | 53 mmHg | 53 mmHg | 53 mmHg | 77 mmHg | 53 mmHg | 63 mmHg
3 | C[C@@H]1CC(=O)NN=C1c1ccc(NN=C(C#N)C#N)cc1 [LEVOSIMENDAN] | 34 mmHg | 31 mmHg | 36 mmHg | 51 mmHg | 34 mmHg | 39 mmHg
4 | C[C@@H]1CC(=O)NN=C1c1ccc(/N=C/c2ccco2)cc1 | 23 mmHg | 24 mmHg | 25 mmHg | 45 mmHg | 25 mmHg | 30 mmHg
5 | C[C@@H]1CC(=O)NN=C1c1ccc(/N=C/c2ccccn2)cc1 | 29 mmHg | 29 mmHg | 30 mmHg | 52 mmHg | 30 mmHg | 39 mmHg
6 | C[C@@H]1CC(=O)NN=C1c1ccc(/N=C/c2ccc(Cl)c(Cl)c2)cc1 | 25 mmHg | 25 mmHg | 24 mmHg | 52 mmHg | 25 mmHg | 33 mmHg
7 | C[C@@H]1CC(=O)NN=C1c1ccc(/N=C/c2ccccc2Cl)cc1 | 34 mmHg | 32 mmHg | 34 mmHg | 81 mmHg | 55 mmHg | 68 mmHg
8 | C[C@@H]1CC(=O)NN=C1c1ccc(/N=C/c2cccc([N+](=O)[O-])c2)cc1 | 67 mmHg | 67 mmHg | 68 mmHg | 77 mmHg | 69 mmHg | 71 mmHg
9 | COc1cc(/C=N/c2ccc(C3=NNC(=O)C[C@H]3C)cc2)cc(OC)c1OC | 27 mmHg | 27 mmHg | 28 mmHg | 77 mmHg | 37 mmHg | 46 mmHg
10 | C[C@@H]1CC(=O)NN=C1c1ccc(/N=C/c2ccc([N+](=O)[O-])cc2)cc1 | 28 mmHg | 29 mmHg | 29 mmHg | 56 mmHg | 31 mmHg | 35 mmHg
11 | C[C@@H]1CC(=O)NN=C1c1ccc(/N=C/c2ccccc2O)cc1 | 26 mmHg | 26 mmHg | 26 mmHg | 55 mmHg | 28 mmHg | 28 mmHg

From ChEMBL document CHEMBL3046100, “Synthesis and anti-congestive heart failure activity of novel levosimendan analogues” (2011)
